Legend:
[1] = Proportion of trans carotenoid in serum and each organ of mice (Test Example 2); type: in vivo, ICR strain mice; details: mice of Test Example 1, 50 mg/kg orally once daily for 10 days
Description: In HPLC, the concentration of adonixanthin was measured as a concentration of each of the cis isomer and the trans isomer. In HPLC, the concentration of astaxanthin was measured as a concentration of each of the cis isomer and the trans isomer. Regarding each of adonixanthin and astaxanthin in serum and each organ of mice of Test Example 1, the proportion of the trans isomer was confirmed.

[2] = Retention in blood: carotenoid concentration in serum of cynomolgus monkeys (Test Example 3); type: in vivo; details: cynomolgus monkey, 50 mg/kg intragastric once daily for 10 days, serum 4 hours after last administration
Description: As experimental animals, cynomolgus monkeys were used. Two cynomolgus monkeys were used, and an adonixanthin dosing solution was administered to one monkey (adonixanthin-administering monkey), while an astaxanthin dosing solution was administered to the other monkey (astaxanthin-administering monkey). As the dosing solutions, the dosing solutions obtained in Preparation Example 2 were used, and the dosing solutions at a dose such that the dose of adonixanthin or astaxanthin was 50 mg/kg body weight were administered once daily for 10 days (the day of initiation of administration of the dosing solutions was defined as day 1). […] The dose in each administration was calculated based on the latest body weight at each administration time point (the body weight was measured on the day of initiation of acclimation, the day of end of acclimation, the day of initiation of administration, and before administration on day 8 of administration using an electric balance (HP-40K or GP-40K, both of which are manufactured by A&D Company, Limited)). […] Regarding each serum 4 hours after the last administration of the dosing solutions, each of the concentration of adonixanthin in serum collected from the adonixanthin-administering monkey and the concentration of astaxanthin in serum collected from the astaxanthin-administering monkey was measured. […]

| SMILES | Proportion of the trans isomer in each organ versus the cis isomer, FIG. 2 [1] | Concentration in serum, FIG. 3 [2] |
| --- | --- | --- |
| CC1=C(/C=C/C(C)=C/C=C/C(C)=C/C=C/C=C(C)/C=C/C=C(C)/C=C/C2=C(C)C(=O)C(O)CC2(C)C)C(C)(C)CC(O)C1 (stereo not drawn) [adonixanthin, 3,3′-dihydroxy-β,β-caroten-4-one] | especially higher than the proportion of the cis isomer | especially likely to be retained in blood |
| CC1=C(/C=C/C(C)=C/C=C/C(C)=C/C=C/C=C(C)/C=C/C=C(C)/C=C/C2=C(C)C(=O)C(O)CC2(C)C)C(C)(C)CC(O)C1=O (stereo not drawn) [astaxanthin, 3,3′-dihydroxy-β,β-carotene-4,4′-dione] | higher than the proportion of the cis isomer | exist in serum at a high concentration |
